From patent publication US20100041892A1, “Therapeutic agent for diabetes” (priority 2005, published 2010)
Structures can show the parent of a compound that is named as a salt.

Compound	melting point
CCCCCS(=O)(=O)NC(=O)/C=C/c1ccc(OCCO[Si](C(C)C)(C(C)C)C(C)C)cc1Oc1ncc(C(F)(F)F)cc1Cl	106 to 108 °C
CCCCCS(=O)(=O)NC(=O)/C=C/c1ccc(OCC(C)(C)O)cc1Oc1ncc(C(F)(F)F)cc1Cl (as salt: acetate) (hydrate or solvate) [Example 250, (2E)-3-[2-{[3-chloro-5-(trifluoromethyl)pyridin-2-yl]oxy}-4-(2-hydroxy-2-methylpropoxy)phenyl]-N-(pentylsulfonyl)acrylamide]	98 to 100 °C
CCCCCS(=O)(=O)NC(=O)/C=C/c1ccc(OCCO[Si](c2ccccc2)(c2ccccc2)C(C)(C)C)cc1Oc1ncc(C(F)(F)F)cc1Cl (hydrate or solvate)	108 to 108.5 °C
CCCCS(=O)(=O)NC(=O)OCCCc1ccc(OCCOC)cc1Oc1ncc(C(F)(F)F)cc1Cl.O (hydrate or solvate)	94 to 96 °C
COCCOc1ccc(CCCOC(=O)NS(=O)(=O)c2ccc(C)cc2)c(Oc2ncc(C(F)(F)F)cc2Cl)c1.O (hydrate or solvate) [Example 30, 3-[2-{[3-chloro-5-(trifluoromethyl)pyridin-2-yl]oxy}-4-(2-methoxyethoxy)phenyl]propyl [(4-methylphenyl)sulfonyl]carbamate monohydrate]	118 to 120 °C
COCCOc1ccc(/C=C/COC(=O)NS(=O)(=O)c2ccc(Cl)cc2)c(Oc2ncc(C(F)(F)F)cc2Cl)c1.O.O (hydrate or solvate) [Example 37, (2E)-3-[2-{[3-chloro-5-(trifluoromethyl)pyridin-2-yl]oxy}-4-(2-methoxyethoxy)phenyl]-2-propen-1-yl [(4-chlorophenyl)sulfonyl]carbamate dihydrate]	174.5 °C (dec.)
CC(C)Oc1ccc(CCC(=O)NS(=O)(=O)c2ccccc2)c(Oc2ncc(C(F)(F)F)cc2Cl)c1 [Example 4, 3-(2-{[3-chloro-5-(trifluoromethyl)pyridin-2-yl]oxy}-4-isopropoxyphenyl)-N-(phenylsulfonyl)propanamide]	129 to 129.5 °C
COCCOc1ccc(CCC(=O)NS(=O)(=O)c2ccc(OC)cc2)c(Oc2ncc(C(F)(F)F)cc2Cl)c1 [Example 7, 3-[2-{[3-chloro-5-(trifluoromethyl)pyridin-2-yl]oxy}-4-(2-methoxyethoxy)phenyl]-N-[(4-methoxyphenyl)sulfonyl]propanamide]	118 to 120 °C
COCCOc1ccc(CCC(=O)NS(=O)(=O)c2ccc(F)cc2)c(Oc2ncc(C(F)(F)F)cc2Cl)c1 [Example 11, 3-[2-{[3-chloro-5-(trifluoromethyl)pyridin-2-yl]oxy}-4-(2-methoxyethoxy)phenyl]-N-[(4-fluorophenyl)sulfonyl]propanamide]	136 to 138 °C
COCCOc1ccc(CCCNS(C)(=O)=O)c(Oc2ncc(C(F)(F)F)cc2Cl)c1 [Example 15, N-{3-[2-{[3-chloro-5-(trifluoromethyl)pyridin-2-yl]oxy}-4-(2-methoxyethoxy)phenyl]propyl}methanesulfonamide]	89 to 90 °C
COCCOc1ccc(CCCNS(=O)(=O)c2ccccc2)c(Oc2ncc(C(F)(F)F)cc2Cl)c1 [Example 16, N-{3-[2-{[3-chloro-5-(trifluoromethyl)pyridin-2-yl]oxy}-4-(2-methoxyethoxy)phenyl]propyl}benzenesulfonamide]	94 to 95 °C
COCCOc1ccc(CCCNS(=O)(=O)Cc2ccccc2)c(Oc2ncc(C(F)(F)F)cc2Cl)c1 [Example 19, N-{3-[2-{[3-chloro-5-(trifluoromethyl)pyridin-2-yl]oxy}-4-(2-methoxyethoxy)phenyl]propyl}-1-phenylmethanesulfonamide]	97 to 100 °C
COCCOc1ccc(CCCNS(=O)(=O)CCCc2ccccc2)c(Oc2ncc(C(F)(F)F)cc2Cl)c1 [Example 21, N-{3-[2-{[3-chloro-5-(trifluoromethyl)pyridin-2-yl]oxy}-4-(2-methoxyethoxy)phenyl]propyl}-3-phenylpropane-1-sulfonamide]	101.8 to 102 °C
COCCOc1ccc(CCCNS(=O)(=O)c2ccc(Cl)cc2)c(Oc2ncc(C(F)(F)F)cc2Cl)c1 [Example 22, 4-chloro-N-{3-[2-{[3-chloro-5-(trifluoromethyl)pyridin-2-yl]oxy}-4-(2-methoxyethoxy)phenyl]propyl}benzenesulfonamide]	111 to 113 °C
COCCOc1ccc(CCCNS(=O)(=O)c2cccc(Cl)c2)c(Oc2ncc(C(F)(F)F)cc2Cl)c1 [Example 24, 3-chloro-N-{3-[2-{[3-chloro-5-(trifluoromethyl)pyridin-2-yl]oxy}-4-(2-methoxyethoxy)phenyl]propyl}benzenesulfonamide]	110 to 114 °C
CCCCCS(=O)(=O)NC/C=C/c1ccc(OCCOC)cc1Oc1ncc(C(F)(F)F)cc1Cl [Example 27, N-{(2E)-3-[2-{[3-chloro-5-(trifluoromethyl)pyridin-2-yl]oxy}-4-(2-methoxyethoxy)phenyl]-2-propen-1-yl}pentane-1-sulfonamide]	106 to 106.5 °C

Compound	melting point
COCCOc1ccc(CCCNS(=O)(=O)c2ccccc2[N+](=O)[O-])c(Oc2ncc(C(F)(F)F)cc2Cl)c1 [Example 29, N-{3-[2-{[3-chloro-5-(trifluoromethyl)pyridin-2-yl]oxy}-4-(2-methoxyethoxy)phenyl]propyl}-2-nitrobenzenesulfonamide]	125.5 to 126 °C
CC(C)Oc1cc(CCCNC(=O)NS(=O)(=O)c2ccccc2)n(Cc2ccc(Cl)cc2Cl)n1 [Example 39, N-[({3-[1-(2,4-dichlorobenzyl)-3-isopropoxy-1H-pyrazol-5-yl]propyl}amino)carbonyl]benzenesulfonamide]	149 °C
CCCCCS(=O)(=O)NCC(C)Cc1ccc(OCCOC)cc1Oc1ncc(C(F)(F)F)cc1Cl (centres unmarked) [Example 41, N-{3-[2-{[3-chloro-5-(trifluoromethyl)pyridin-2-yl]oxy}-4-(2-methoxyethoxy)phenyl]-2-methylpropyl}pentane-1-sulfonamide]	80 to 82 °C
CCCCCS(=O)(=O)NC(=O)CCc1ccc(OC(C)C)cc1OCc1ccc(Cl)cc1Cl [Example 42, 3-{2-[(2,4-dichlorobenzyl)oxy]-4-isopropoxyphenyl}-N-(pentylsulfonyl)propanamide]	120 to 120.5 °C
COCCOc1ccc(CCC(=O)NS(=O)(=O)CCC(C)C)c(Oc2ncc(C(F)(F)F)cc2Cl)c1 [Example 43, 3-[2-{[3-chloro-5-(trifluoromethyl)pyridin-2-yl]oxy}-4-(2-methoxyethoxy)phenyl]-N-[(3-methylbutyl)sulfonyl]propanamide]	130 to 132 °C
CCN(CC)C(=O)COc1ccc(CCC(=O)NS(=O)(=O)CCC(C)C)c(Oc2ncc(C(F)(F)F)cc2Cl)c1 [Example 45, 3-{2-{[3-chloro-5-(trifluoromethyl)pyridin-2-yl]oxy}-4-[2-(diethylamino)-2-oxoethoxy]phenyl}-N-[(3-methylbutyl)sulfonyl]propanamide]	123 to 125 °C
COCCOc1ccc(CCCOC(=O)N2CCOCC2)c(Oc2ncc(C(F)(F)F)cc2Cl)c1 [Example 48, 3-[2-{[3-chloro-5-(trifluoromethyl)pyridin-2-yl]oxy}-4-(2-methoxyethoxy)phenyl]propyl morpholine-4-carboxylate]	82.3 to 82.4 °C
CCCCNC(=O)OCCCc1ccc(OCCOC)cc1Oc1ncc(C(F)(F)F)cc1Cl [Example 49, 3-[2-{[3-chloro-5-(trifluoromethyl)pyridin-2-yl]oxy}-4-(2-methoxyethoxy)phenyl]propyl butylcarbamate]	91.7 to 91.8 °C
CCCCN(C)C(=O)OCCCc1ccc(OCCOC)cc1Oc1ncc(C(F)(F)F)cc1Cl [Example 50, 3-[2-{[3-chloro-5-(trifluoromethyl)pyridin-2-yl]oxy}-4-(2-methoxyethoxy)phenyl]propyl butyl(methyl)carbamate]	54 to 55.2 °C
CCN(CC)C(=O)COc1ccc(CCCOC(=O)NCC2CC2)c(Oc2ncc(C(F)(F)F)cc2Cl)c1 [Example 52, 3-{2-{[3-chloro-5-(trifluoromethyl)pyridin-2-yl]oxy}-4-[2-(diethylamino)-2-oxoethoxy]phenyl}propyl (cyclopropylmethyl)carbamate]	94 to 94.5 °C
CCOC(=O)COc1ccc(CCCOC(=O)NCC2CC2)c(Oc2ncc(C(F)(F)F)cc2Cl)c1 [Example 53, ethyl {3-{[3-chloro-5-(trifluoromethyl)-pyridin-2-yl]oxy}-4-[3-({[(cyclopropylmethyl)amino]carbonyl}-oxy)propyl]phenoxy}acetate]	112.8 to 113 °C
COCCCNC(=O)OCCCc1ccc(OCCOC)cc1Oc1ncc(C(F)(F)F)cc1Cl [Example 55, 3-[2-{[3-chloro-5-(trifluoromethyl)pyridin-2-yl]oxy}-4-(2-methoxyethoxy)phenyl]propyl (3-methoxypropyl)carbamate]	83.5 to 85 °C
CCOCCNC(=O)OCCCc1ccc(OCCOC)cc1Oc1ncc(C(F)(F)F)cc1Cl [Example 56, 3-[2-{[3-chloro-5-(trifluoromethyl)pyridin-2-yl]oxy}-4-(2-methoxyethoxy)phenyl]propyl (2-ethoxyethyl)carbamate]	66 to 68 °C
COCCCS(=O)(=O)NC(=O)/C=C/c1ccc(OC(C)C)cc1Oc1ncc(C(F)(F)F)cc1Cl [Example 57, (2E)-3-[2-{[3-chloro-5-(trifluoromethyl)pyridin-2-yl]oxy}-4-isopropoxyphenyl]-N-[(3-methoxypropyl)sulfonyl]acrylamide]	129.5 to 130 °C
COCCOc1ccc(COC(=O)NS(=O)(=O)CCC(C)C)c(Oc2ncc(C(F)(F)F)cc2Cl)c1 [Example 59, 2-{[3-chloro-5-(trifluoromethyl)pyridin-2-yl]oxy}-4-(2-methoxyethoxy)benzyl [(3-methylbutyl)sulfonyl]carbamate]	122 to 124 °C
COCCOc1ccc(COC(=O)NS(=O)(=O)NCC(C)C)c(Oc2ncc(C(F)(F)F)cc2Cl)c1 [Example 60, 2-{[3-chloro-5-(trifluoromethyl)pyridin-2-yl]oxy}-4-(2-methoxyethoxy)benzyl [(isobutylamino)sulfonyl]carbamate]	160 to 161 °C
